In PMC5226997 (European Journal of Clinical Pharmacology, 2016):
Several values for one entry are separate records, joined by “and”; a condition that tells them apart may be missing. Equal values may be shown once. Read-outs that look alike come from different tables or passages of the source. Marks after values point to notes of the source that are not given here. One block for each molecule: values may come before it.

Legend:
[1] = Study B: safety and tolerability (adverse events); type: in vivo, human
Description: Adverse events (reported by system organ class and preferred term using the Medical Dictionary for Regulatory Activities (MedDRA) version 17.0), vital signs, 12-lead electrocardiograms (ECGs), and clinical laboratory tests were recorded to assess safety and tolerability in both trials. Adverse events were collected from day 1, period 1 of visit 2, until the follow-up visit in each trial. Serious adverse events were collected from the time of informed consent until follow-up. Each adverse event was assigned to the period of study treatment in which it started or worsened. Additional information regarding safety and tolerability is included as Online Resource 3.
The safety analysis set included any subject who received at least one dose of any of the investigational products, and in addition in the itraconazole/fluconazole trial, for whom post-dose data were available.

[2] = Study A: safety and tolerability (adverse events); type: in vivo, human
[3] = human, in vivo
Description: (§1) The phase I, open-label, single-center, double-crossover-sequence, partially randomized (for assignment to treatment sequence), three-period itraconazole/fluconazole trial consisted of four visits to the study center (Fig. 1a). Subjects were screened during visit 1, which is 28 days prior to visit 2.
(§2) On day 1 of visit 2, subjects were randomized to one of two treatment sequences and admitted for residence at the study center up to day 12; standardized meals were provided during residency. […] Safety assessments were performed, and blood samples were collected for PK analysis up until day 12. Subjects were discharged on day 12 and completed a washout period of at least 21 days.
(§3) During visit 3, dosing period 3 comprised days 1–11 when subjects received the alternate treatment regimen (fluconazole 400 mg on day 1 followed by 200 mg once daily thereafter or itraconazole 200 mg twice daily) in a crossover fashion. […] Subjects were discharged on day 12. A follow-up visit, visit 4, was scheduled for 7–10 days after discharge from the study center.
(§4) Fluids were not allowed from 1 h pre- until 1 h post-dose, with the exception of 240 mL water to swallow the capsules. Fluconazole was dosed with a light breakfast; there were no restrictions regarding dosing with food in the SPC [8]. Itraconazole was dosed with a light breakfast and dinner as per SPC guidelines to ensure complete absorption [9].
(§5) Blood samples were collected prior to itraconazole or fluconazole administration on days 6 to 8 to determine trough itraconazole or fluconazole concentrations; rifampicin concentrations were measured at 2 h post-dose. In study B, the 4β-hydroxycholesterol to cholesterol concentration ratio was calculated as a biomarker of CYP3A4 induction. […] Samples were analyzed by Covance on behalf of AstraZeneca R&D, using an appropriate bioanalytical method [e.g., [11], [12]].
(§6) PK variables were summarized using descriptive statistics.
(§7) After addition of deuterated internal standard, samples were extracted by protein precipitation by the addition of 4 volumes of methanol:acetonitrile. After centrifugation, the supernatants were extracted to dryness under nitrogen at 50°C and reconstituted in methanol;water before analysis.

[4] = human, in vivo, 75 mg
Description: (§8) The rifampicin open-label, fixed-sequence, single-center trial consisted of three visits to the study center (Fig. 1b). Subjects were screened during visit 1, which is 28 days prior to visit 2. […] Safety assessments were performed, and blood samples were collected for PK analysis up until day 15. Subjects were discharged from the study center on day 15. The final visit, visit 3, was for follow-up and took place 7–10 days after discharge.
(§9) Subjects received daily dosing of rifampicin 600 mg for 8 days to maximize the induction effect on CYP3A4 [10]. […] Fluids were not allowed from 1 h pre- until 1 h post-dose, with the exception of water needed to swallow investigational products.
as §5, §6, §7

[5] = human
Description: as §7

[6] = set-up: method as in earlier work; details: relative bioavailability trial NCT01635023; cited from earlier work
[7] = clinical; details: human, in vivo, 75 mg
Description: as §8, §9, §5, §6, §7

[8] = Study B: plasma pharmacokinetics of single-dose selumetinib 75 mg alone or co-dosed with rifampicin; details: human, in vivo
Description: as §8, §9, §5, §6, §7

[9] = Study A: plasma pharmacokinetics of single-dose selumetinib 25 mg alone or co-dosed with itraconazole or fluconazole; details: for AUC / Cmax / half-life: human, plasma, oral
Description: as §1, §2, §3, §4, §5, §6, §7

[10] = Frozen storage stability in plasma samples; details: plasma with K2EDTA; -20°C -80°C
Description: as §7

[11] = during single-agent (only) treatment
[12] = co-dosed with fluconazole vs selumetinib alone

Compound: CO[C@H]1/C=C/O[C@@]2(C)Oc3c(C)c(O)c4c(O)c(c(/C=N/N5CCN(C)CC5)c(O)c4c3C2=O)NC(=O)/C(C)=C\C=C\[C@H](C)[C@H](O)[C@@H](C)[C@@H](O)[C@@H](C)[C@H](OC(C)=O)[C@@H]1C [rifampicin, reference compound]
subjects reporting adverse events ([1]; period of rifampicin administration (days 4–11)): all subjects
subjects reporting chromaturia ([1]; period of rifampicin administration (days 4–11), resolved 2 to 3 days after treatment ceased): reported by all of these subjects

trough plasma concentration (geometric mean) [3]: 5590 to 5730 ng/mL
Compound: OC(Cn1cncn1)(Cn1cncn1)c1ccc(F)cc1F [fluconazole, reference compound]
subjects reporting adverse events [2, 11]: 17.4%

Compound: Cn1cnc2c(F)c(Nc3ccc(Br)cc3Cl)c(C(=O)NOCCO)cc21 [Selumetinib]
subjects reporting adverse events [2, 11]: 7.7%
subjects with selumetinib-related adverse events (diffuse alopecia, headache; mild) ([2]; selumetinib and itraconazole co-dosing, n = 2): 8.3%
subjects reporting adverse events ([2]; selumetinib co-dosed with fluconazole, 4/22): 18.2%
subjects with selumetinib-related acne (mild) ([2]; selumetinib co-dosed with fluconazole, one subject): 4.5%
subjects reporting headache ([2]; selumetinib co-dosed with itraconazole, n = 4/24): 16.7%
subjects reporting adverse events ([2]; selumetinib co-dosed with itraconazole, n = 7/24): 29.2%
subjects reporting a moderate adverse event (headache) ([2]; selumetinib co-dosed with itraconazole, one subject): 4.2%
tolerability ([2]; single dose or co-administered with itraconazole or fluconazole): well tolerated
relation of adverse events to selumetinib treatment ([1]; all adverse events mild): unrelated
subjects reporting at least one adverse event ([1]; selumetinib co-dosed with rifampicin, one subject (erythema)): 4.5%
subjects reporting at least one adverse event ([1]; selumetinib-only treatment, four subjects): 18.2%
tolerability ([1]; single dose or co-administered with rifampicin): well tolerated
C max, geometric least squares mean (GLSMR line) [4]: 1441 ng/mL
CL/F arithmetic mean (SD) [4]: 17.0 (3.33) L/h
established frozen storage stability period [5]: 24 months
within-subject coefficient of variation (CV) for AUC [6]: 16.9%
within-subject coefficient of variation (CV) for C max [6]: 34.0%
Tmax [7]: 1.27 h
AUC ([7]; AUC, geometric least squares mean (GLSMR line)): 4480 ng·h/mL
half-life ([7]; t 1/2 arithmetic mean (SD)): 9.27 h
AUC [8]: 4480 ng·h/mL
AUC increased by [9, 12]: 53% and ~ 50%
C max increased by [9, 12]: 26%
AUC ([9]; 25 mg, AUC (CV%), study A, selumetinib 25 mg alone, N = 26): 1180 ng·h/mL
AUC ([9]; 25 mg, AUC, geometric least squares mean (GLSMR line), study A, selumetinib 25 mg alone, n = 26, linear mixed-effects model): 1180 ng·h/mL
Cmax ([9]; 25 mg, C max (CV%), study A, selumetinib 25 mg alone, N = 26): 409 ng/mL
Cmax ([9]; 25 mg, C max, geometric least squares mean (GLSMR line), study A, selumetinib 25 mg alone, n = 26, linear mixed-effects model): 409 ng/mL
half-life ([9]; 25 mg, t 1/2 arithmetic mean (SD), study A, selumetinib 25 mg alone, N = 26): 8.24 h
AUC ([9]; AUC (CV%), study A, selumetinib 25 mg + fluconazole, N = 22): 1770 ng·h/mL
AUC ([9]; AUC (CV%), study A, selumetinib 25 mg + itraconazole, N = 24): 1760 ng·h/mL
AUC ([9]; AUC, geometric least squares mean (GLSMR line), study A, selumetinib 25 mg + fluconazole, n = 22, linear mixed-effects model): 1820 ng·h/mL
AUC ([9]; AUC, geometric least squares mean (GLSMR line), study A, selumetinib 25 mg + itraconazole, n = 24, linear mixed-effects model): 1770 ng·h/mL
Cmax ([9]; C max (CV%), study A, selumetinib 25 mg + fluconazole, N = 22): 509 ng/mL
Cmax ([9]; C max (CV%), study A, selumetinib 25 mg + itraconazole, N = 24): 484 ng/mL
Cmax ([9]; C max, geometric least squares mean (GLSMR line), study A, selumetinib 25 mg + fluconazole, n = 22, linear mixed-effects model): 513 ng/mL
Cmax ([9]; C max, geometric least squares mean (GLSMR line), study A, selumetinib 25 mg + itraconazole, n = 24, linear mixed-effects model): 484 ng/mL
half-life ([9]; mean t 1/2 prolonged by, co-dosed with fluconazole vs selumetinib alone): ~1.5 h
half-life ([9]; mean terminal half-life (t 1/2) prolonged by, co-dosed with itraconazole vs selumetinib alone): ~6 h
half-life ([9]; t 1/2 arithmetic mean (SD), study A, selumetinib 25 mg + fluconazole, N = 22): 9.75 h
half-life ([9]; t 1/2 arithmetic mean (SD), study A, selumetinib 25 mg + itraconazole, N = 24): 14 h
CL/F arithmetic mean (SD) ([9]; study A, selumetinib 25 mg + fluconazole, N = 22): 14.8 (4.39) L/h
CL/F arithmetic mean (SD) ([9]; study A, selumetinib 25 mg + itraconazole, N = 24): 14.9 (4.92) L/h
CL/F arithmetic mean (SD) ([9]; study A, selumetinib 25 mg alone, N = 26): 21.9 (5.76) L/h

AUC(0–t), geometric least squares mean (GLSMR line) ([3]; 25 mg): 83.39 ng·h/mL
C max, geometric least squares mean (GLSMR line) ([3]; 25 mg): 35.67 ng/mL
MRAUC(0–t) (AUC(0–t) metabolite to parent ratio), arithmetic mean (SD) ([3]; 25 mg): 0.0760 (0.0227)
MRCmax (C max metabolite to parent ratio), arithmetic mean (SD) ([3]; 25 mg): 0.0917 (0.0312)
t 1/2 arithmetic mean (SD) ([3]; 25 mg): 4.66 (2.38) h
t max median (min, max) ([3]; 25 mg): 1.00 (0.50, 2.50) h
AUC(0–t), geometric least squares mean (GLSMR line) [4]: 347.3 ng·h/mL
C max, geometric least squares mean (GLSMR line) [4]: 106.4 ng/mL
MRAUC (AUC metabolite to parent ratio), arithmetic mean (SD) [4]: 0.0921 (0.0236)^a
MRAUC(0–t) (AUC(0–t) metabolite to parent ratio), arithmetic mean (SD) [4]: 0.0921 (0.0236)
MRCmax (C max metabolite to parent ratio), arithmetic mean (SD) [4]: 0.0760 (0.0187)
t 1/2 arithmetic mean (SD) [4]: 9.47 (3.24) h
t max median (min, max) [4]: 1.50 (1.00, 3.00) h
established frozen storage stability period [10]: 9 months
Compound: O=C(NOCCO)c1cc2nc[nH]c2c(F)c1Nc1ccc(Br)cc1Cl [N-desmethyl selumetinib]

Compound: CCC(C)n1ncn(-c2ccc(N3CCN(c4ccc(OCC5COC(Cn6cncn6)(c6ccc(Cl)cc6Cl)O5)cc4)CC3)cc2)c1=O (centres unmarked) [itraconazole, reference compound]
subjects reporting adverse events [2, 11]: 20.8%
